In patent US4650788A, “Novel peptides having an immunostimulating action, processes for their preparation and their use” (Hoechst Aktiengesellschaft, priority 1983, dated 1987):
Square brackets hold non-standard residues; d marks the D form. Peptide text beside a SMILES is read from it.

Legend:
[1] = test system: spleen cells of mice (B lymphocytes), in vitro immunization with sheep erythrocytes; assay: plaque-forming cell test (PFC test); type: cell-based; conditions: Dosage 100 ng/substance/1 ml of cell culture; mouse spleen cell culture, 5 days; untreated control 221 ± 30
Experimental: […]. The in vitro immunization is effected with 5×10^7 sheep erythrocytes/ml. The test cell cultures are incubated daily with the corresponding dose of the test substance.
After a running time of 5 days, the cells are centrifuged off and washed with medium RPMI 1640 and the direct PFC test is carried out. For this, the cells are mixed with a 10% sheep erythrocyte suspension in an agarose solution and the mixture is poured onto a flat surface. In the layer of gel formed, the stimulated lymphocytes release antibodies during subsequent incubation, and these diffuse into the environment and attach themselves to the sheep erythrocytes therein. After addition of guinea pig complement, the red blood cells lyse. Light-colored round spots which can be seen with the naked eye form in the reddish-brown gel, i.e. the hemolysis areolas of the plaques. An antibody-producing cell is found in the center of such hemolysis areolas. The number of lymphoid cells which form specific immunoglobulins can consequently be equated with the numbers of plaques found.

[2] = test system: lymphocytes (T cells); assay: PHA stimulation test (lymphocyte transformation test); type: cell-based; conditions: Dosage 100 ng/substance/1 ml of cell culture; 10 μg of PHA/1 ml, 72 hours; untreated control 1.00
Source text: In the PHA stimulation test (PHA=phytohemagglutinin) or the lymphocyte transformation test, conclusions as to the number of mature, i.e. stimulatable, lymphocytes are drawn not via investigation of the surface antigens but by the function test for ability to be stimulated by the plant lectin PHA. The lymphocytes (T cells) are stimulated to […] transformation by the lectin, in the same way as by bacterial or viral antigens. This leads to proliferation, either directly or by the release of lymphokins. The incorporation of the radiolabeled thymidine within a certain time is then a measure of the number of stimulated cells. Only the mature or immunologically potent T cells are stimulated. The influence of a substance on lymphocyte maturation can therefore be monitored with this test. However, the stimulation must be sub-optimum, since other sub-populations of lymphocytes are also stimulated at higher concentrations and the effect can no longer be observed. The peptides to be investigated have been added to the culture medium in various concentrations. They are present throughout the entire duration of the test (up to 72 hours).

| Compound | PFC/10^6 cells [1] | PHA stimulation index [2] |
| --- | --- | --- |
| CC(C)[C@H]1NC(=O)[C@H](CC(=O)O)NC(=O)[C@H](CCCCN)NC(=O)[C@H](CCCNC(=N)N)NC(=O)[C@H](Cc2c[nH]c3ccccc23)NC1=O [cyclo-(Arg--Lys--Asp--D-Val--Trp)] (cyclo(D[dV]WRK)) | 312 ± 58 PFC/10^6 cells | – |
| CC(C)[C@H]1NC(=O)[C@H](CC(=O)O)NC(=O)[C@H](CCCCN)NC(=O)[C@H](CCCNC(=N)N)NC(=O)[C@H](Cc2ccc(O)cc2)NC1=O [cyclo-(Arg--Lys--Asp--D-Val--Tyr), cyclo-(Arg-Lys-Asp-D-Val-Tyr).2HOAc] (cyclo(D[dV]YRK)) | 401 ± 64 PFC/10^6 cells | 1.69 |
| CC(C)[C@H]1NC(=O)[C@H](CCC(=O)O)NC(=O)[C@H](CCCCN)NC(=O)[C@H](CCCNC(=N)N)NC(=O)[C@H](Cc2c[nH]c3ccccc23)NC1=O [cyclo-(Arg--Lys--Glu--D-Val--Trp)] (cyclo(E[dV]WRK)) | 369 ± 54 PFC/10^6 cells | 1.25 |
| CC(C)[C@H]1NC(=O)[C@H](CCC(=O)O)NC(=O)[C@H](CCCCN)NC(=O)[C@H](CCCNC(=N)N)NC(=O)[C@H](Cc2ccc(O)cc2)NC1=O [cyclo-(Arg--Lys--Glu--D-Val--Tyr), cyclo-(Arg-Lys-Glu-D-Val-Tyr).2 HOAc] (cyclo(E[dV]YRK)) | 687 ± 73 PFC/10^6 cells | 1.92 |
| CC(C)[C@@H]1NC(=O)[C@H](CCC(=O)O)NC(=O)[C@H](CCCCN)NC(=O)[C@H](CCCNC(=N)N)NC(=O)[C@@H](Cc2ccccc2)NC1=O [cyclo-(Arg--Lys--Glu--Val--D-Phe)] (cyclo(EV[dF]RK)) | 250 ± 31 PFC/10^6 cells | – |
| CC(C)[C@@H]1NC(=O)[C@H](CC(=O)O)NC(=O)[C@H](CCCNC(=N)N)NC(=O)[C@@H](CCCCN)NC(=O)[C@H](Cc2ccc(O)cc2)NC1=O [cyclo-(D-Lys--Arg--Asp--Val--Tyr)] (cyclo(DVY[dK]R)) | 341 ± 43 PFC/10^6 cells | – |
| CC(C)[C@@H]1NC(=O)[C@H](CCC(=O)O)NC(=O)[C@H](CCCNC(=N)N)NC(=O)[C@@H](CCCCN)NC(=O)[C@H](Cc2ccc(O)cc2)NC1=O [cyclo-(D-Lys--Arg--Glu--Val--Tyr)] (cyclo(EVY[dK]R)) | 317 ± 41 PFC/10^6 cells | 1.15 |
